# How the values were obtained:
# human RXFP1 = biological target: T1, human RXFP1 (Homo sapiens, UniProt Q9HBX9); test: hRXFP1 HEK293 cAMP assay (HTRF); type: cell-based; conditions: HEK293 cells stably expressing human RXFP1
# T1 construct: expressed in transfected cells
# T1 sequence (Q9HBX9 1-757): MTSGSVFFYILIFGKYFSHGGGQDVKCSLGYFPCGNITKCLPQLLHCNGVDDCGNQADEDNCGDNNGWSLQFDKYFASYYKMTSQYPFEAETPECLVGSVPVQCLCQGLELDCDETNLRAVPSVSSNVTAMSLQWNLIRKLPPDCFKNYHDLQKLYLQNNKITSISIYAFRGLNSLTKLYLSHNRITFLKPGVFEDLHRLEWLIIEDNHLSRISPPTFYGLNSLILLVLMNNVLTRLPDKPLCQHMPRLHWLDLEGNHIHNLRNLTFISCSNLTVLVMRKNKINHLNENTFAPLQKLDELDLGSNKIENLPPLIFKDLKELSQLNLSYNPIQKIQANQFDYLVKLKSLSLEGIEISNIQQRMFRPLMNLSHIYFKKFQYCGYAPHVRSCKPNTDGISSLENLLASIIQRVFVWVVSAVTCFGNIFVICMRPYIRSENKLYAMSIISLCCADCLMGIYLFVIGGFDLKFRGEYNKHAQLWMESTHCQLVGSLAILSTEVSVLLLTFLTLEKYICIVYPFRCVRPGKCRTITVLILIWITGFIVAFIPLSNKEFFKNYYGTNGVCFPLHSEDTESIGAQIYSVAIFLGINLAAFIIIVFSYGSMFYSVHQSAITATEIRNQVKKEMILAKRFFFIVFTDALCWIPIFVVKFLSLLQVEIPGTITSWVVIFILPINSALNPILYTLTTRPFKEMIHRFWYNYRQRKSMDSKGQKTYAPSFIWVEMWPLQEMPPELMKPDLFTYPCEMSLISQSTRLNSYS
# Procedure: RXFP1 Cyclic Adenosine Monophosphate (cAMP) Assays. Human embryonic kidney cells 293 (HEK293) cells and HEK293 cells stably expressing human RXFP1, were cultured in MEM medium supplemented with 10% qualified FBS, and 300 μg/ml hygromycin (Life Technologies). Cells were dissociated and suspended in assay buffer. The assay buffer was HBSS buffer (with calcium and magnesium) containing 20 mM HEPES, 0.05% BSA, and 0.5 mM IBMX. Cells (3000 cells per well, except 1500 cell per well for HEK293 cells stably expressing human RXFP1) were added to 384-well Proxiplates (Perkin-Elmer). Cells were immediately treated with test compounds in DMSO (2% final) at final concentrations in the range of 0.010 nM to 50 μM. Cells were incubated for 30 min at room temperature. The level of intracellular cAMP was determined using the HTRF HiRange cAMP assay reagent kit (Cisbio) according to manufacturer's instructions. Solutions of cryptate conjugated anti-cAMP and d2 fluorophore-labelled cAMP were made in a supplied lysis buffer separately. Upon completion of the reaction, the cells were lysed with equal volume of the d2-cAMP solution and anti-cAMP solution. After a 1 h room temperature incubation, time-resolved fluorescence intensity was measured using the Envision (Perkin-Elmer) at 400 nm excitation and dual emission at 590 nm and 665 nm. A calibration curve was constructed with an external cAMP standard at concentrations ranging from 2.7 μM to 0.1 μM by plotting the fluorescent intensity ratio from 665 nm emission to the intensity from the 590 nm emission against cAMP concentrations. The potency and activity of a compound to […] cAMP production was then determined by fitting to a 4-parametric logistic equation from a plot of cAMP level versus compound concentrations.
# The examples disclosed below were tested in the human RXFP1 (hRXFP1) HEK293 cAMP assay described above and found to have agonist activity. Tables 1-3, lists EC50 values in the hRXFP1 HEK293 cAMP assay measured for the examples.
# [1] = intravenous (IV) formulation; cited from earlier work
# [2] = phenylcyclohexyl (tetraline) examples
molecule,measurement,setting,value
"COc1ccc(C2=NOC3CC(CO)CC23)cc1C(=O)Nc1cc2c(cc1C(=O)Nc1ccc(F)c(C(F)(F)F)c1)CCCC2 (centres unmarked) [Example 12, N-(4-fluoro-3-(trifluoromethyl)phenyl)-3-(5-(5-(hydroxymethyl)-3a,5,6,6a-tetrahydro-4H-cyclopenta[d]-isoxazol-3-yl)-2-methoxybenzamido)-5,6,7,8-tetrahydronaphthalene-2-carboxamide]",EC50,human RXFP1; [2],290 nM
"COc1ccc(-c2cc(C(O)C(=O)O)ccc2F)cc1C(=O)Nc1cc2c(cc1C(=O)Nc1ccc(F)c(C(F)(F)F)c1)CC2 (centres unmarked) [Example 23, 2-(6-fluoro-3′-((4-((4-fluoro-3-(trifluoromethyl)phenyl)carbamoyl)bicyclo[4.2.0]octa-1,3,5-trien-3-yl)carbamoyl)-4′-methoxy-[1,1′-biphenyl]-3-yl)-2-hydroxyacetic acid]",EC50,human RXFP1; phenylcyclobutane examples,660 nM
Serelaxin,first-phase pharmacokinetic half-life,[1],5.4 min
"COc1ccc(-c2cc(C(=O)NCC3CCC3)ccc2F)cc1C(=O)Nc1cc2c(cc1C(=O)Nc1ccc(F)c(C(F)(F)F)c1)CCCC2 [Example 8, N3′-(cyclobutyl-methyl)-6′-fluoro-N3-(3-((4-fluoro-3-(trifluoromethyl)phenyl)carbamoyl)-5,6,7,8-tetrahydro-naphthalen-2-yl)-4-methoxy-[1,1′-biphenyl]-3,3′-dicarboxamide]",EC50,human RXFP1; [2],4200 nM
"COc1ccc(-c2cc([C@H](OC(=O)NC3CCC3)C(F)(F)F)ccc2F)cc1C(=O)Nc1cc2c(cc1C(=O)Nc1ccc(F)c(C(F)(F)F)c1)CCCC2 [Example 6, (S)-2,2,2-trifluoro-1-(6-fluoro-3′-((3-((4-fluoro-3-(trifluoromethyl)phenyl)carbamoyl)-5,6,7,8-tetrahydronaphthalen-2-yl)carbamoyl)-4′-methoxy-[1,1′-biphenyl]-3-yl)ethyl cyclobutylcarbamate]",EC50,human RXFP1; [2],15 nM
"COc1ccc(C2=NOC3CC(CO)CC23)cc1C(=O)Nc1cc2c(cc1C(=O)Nc1ccc(F)c(C(F)(F)F)c1)CCC2=O (single isomer, unassigned) [Example 28, N-(4-fluoro-3-(trifluoromethyl)phenyl)-6-(5-(5-(hydroxymethyl)-3a,5,6,6a-tetrahydro-4H-cyclopenta[d]isoxazol-3-yl)-2-methoxybenzamido)-1-oxo-2,3-dihydro-1H-indene-5-carboxamide]",EC50,human RXFP1; phenylcyclopentyl examples,160 nM
"COc1ccc(-c2cc(C(=O)O)ccc2F)cc1C(=O)Nc1cc2c(cc1C(=O)Nc1ccc(F)c(C(F)(F)F)c1)CCC2 [Example 24, 6-fluoro-3′-((6-((4-fluoro-3-(trifluoromethyl)phenyl)carbamoyl)-2,3-dihydro-1H-inden-5-yl)carbamoyl)-4′-methoxy-[1,1′-biphenyl]-3-carboxylic acid]",EC50,human RXFP1; phenylcyclopentyl examples,3440 nM
"COc1ccc(-c2cc(CC(=O)NCC3CCC3)ccc2F)cc1C(=O)Nc1cc2c(cc1C(=O)Nc1ccc(F)c(C(F)(F)F)c1)CCCC2 [Example 9, 3-(5′-(2-((cyclobutylmethyl)amino)-2-oxoethyl)-2′-fluoro-4-methoxy-[1,1′-biphenyl]-3-carboxamido)-N-(4-fluoro-3-(trifluoromethyl)phenyl)-5,6,7,8-tetrahydronaphthalene-2-carboxamide]",EC50,human RXFP1; [2],22 nM
"COc1ccc(-c2cc(C(=O)O)ccc2F)cc1C(=O)Nc1cc2c(cc1C(=O)Nc1ccc(F)c(C(F)(F)F)c1)CCCC2 [Example 1, 6-fluoro-3′-((3-((4-fluoro-3-(trifluoromethyl)phenyl)carbamoyl)-5,6,7,8-tetrahydronaphthalen-2-yl)carbamoyl)-4′-methoxy-[1,1′-biphenyl]-3-carboxylic acid]",EC50,human RXFP1; [2],390 nM
"COc1ccc(-c2cc(C(N)C(=O)O)ccc2F)cc1C(=O)Nc1cc2c(cc1C(=O)Nc1ccc(F)c(C(F)(F)F)c1)CCCC2 (single isomer, unassigned) [Example 3, 2-amino-2-(6-fluoro-3′-((3-((4-fluoro-3-(trifluoromethyl)phenyl)carbamoyl)-5,6,7,8-tetrahydronaphthalen-2-yl)carbamoyl)-4′-methoxy-[1,1′-biphenyl]-3-yl)acetic acid]",EC50,human RXFP1; [2],2300 nM
"COc1ccc(C2=NOC3CNCC23)cc1C(=O)Nc1cc2c(cc1C(=O)Nc1ccc(F)c(C(F)(F)F)c1)CCCC2 (mixture of isomers) [Example 15, N-(4-fluoro-3-(trifluoromethyl)phenyl)-3-(2-methoxy-5-(3a,5,6,6a-tetrahydro-4H-pyrrolo[3,4-d]isoxazol-3-yl)benzamido)-5,6,7,8-tetrahydronaphthalene-2-carboxamide]",EC50,human RXFP1; [2],3700 nM
